Series [1] in a line: Steady-state clinical study: plasma levels of levosimendan and metabolite (II) after 7 days levosimendan administration. The format is in vivo. As to conditions: human, po, 1 mg levosimendan orally three times a day for 7 days, healthy volunteers, formulation as Formulation 3 except 1 mg levosimendan and Avicel PH-200 51.0 mg, N 14, read-out: Mean plasma level of levosimendan (day 7). On the procedure:
The steady-state plasma level for metabolite (II) can be measured for any composition by administering the composition of levosimendan to a volunteer or group of volunteers once or several times a day for several days until a steady state level of (II) is reached. The plasma levels of the active metabolite (II) can then be measured according to the procedure described in detail in Example 2.
The active metabolite (II) is added in 20 μl of phosphate buffer, pH 7.2 to 0.5 ml of analyte-free plasma. The amounts of analyte added are 0.100, 0.250, 0.500, 1.00, 2.50, 3.75, 5.00, 7.50 and 12.5 ng. After being vortexed for 20 seconds and left standing for 10 minutes, the 2500 pg of internal standard (R)-N-[4-(1,4,5,6-tetrahydro-4-ethyl-6-oxo-3-pyridazinyl)phenyl]acetamide is added in 20 μl of phosphate buffer, pH 7.2. The mixture is vortexed for 1 minute and left standing for 15 minutes. The calibration samples are alkalised with 50 μl of 0.1 M sodium hydroxide and vortexed for 20 seconds. […]
Determinations are carried out by using the selected reaction monitoring technique. […] The selected reaction monitoring chromatograms are recorded using a PE Sciex API 300 Data System.
Peak area ratios of analyte and its internal standard are plotted against concentrations. […] The limit of quantitation is 0.200 ng/ml. […]

For series [2] the following is noted: cited from earlier work.
The nature of series [3]: Pharmacokinetics of levosimendan and its active metabolite (elimination half-life, absorption). The following applies: active first-pass metabolite of levosimendan. Type of series: in vivo, human. From the text: The hemodynamic effects of levosimendan in man are described in Sundberg, S. et al., Am. J. Cardiol., 1995; 75: 1061-1066. Pharmacokinetics of levosimendan in man after i.v. and oral dosing is described in Sandell, E. -P. et al., J. Cardiovasc. Pharmacol., 26(Suppl. I), S57-S62, 1995. The use of levosimendan in the treatment of myocardial ischemia is described in WO 93/21921. Clinical studies have confirmed the beneficial effects of levosimendan in heart failure patients.
Firstly, the elimination half-life of levosimendan in human is short, about 1 h. Therefore, using conventional immediate release oral formulations levosimendan should be administered frequently during the day. Secondly, the gastrointestinal absorption of levosimendan is rapid. Therefore, using immediate release oral formulations high peak plasma concentrations of levosimendan are reached rapidly and abruptly, typically within 1 hour. High plasma concentrations of levosimendan tend to increase heart rate which is an undesired effect in heart failure patients.
The discovery of the active metabolite and its formation route makes it now possible to design controlled release preparations which show a reduced occurrence of undesired effects and which are well suited for the treatment of heart failure patients.

The values that follow come from patent US7045147B1, “Controlled release peroral compositions of levosimendan” (Orion Corporation, priority 1998, dated 2006).

Structures are written as SMILES. Where only a bound is given, the exact number is not on record here.

Consider `CC1CC(=O)NN=C1c1ccc(NN=C(C#N)C#N)cc1` (single isomer, unassigned; (-)) [Levosimendan, (−)-[[4-(1,4,5,6-tetrahydro-4-methyl-6-oxo-3-pyridazinyl)phenyl]hydrazono]propanedinitrile], for which the concentration at 1 h in series [1] (1 h after the last dose (day 7)) worked out at 15.4 ng/mL. Besides, in series [1] (4 h after the last dose (day 7)), the concentration at 4 h is 8.9 ng/mL. For the same compound, the “time to reach peak plasma concentrations” value in series [2] (immediate release oral formulations) was at most 1 h. The elimination half-life entry in series [2] (in human) is recorded as “about 1 h”.

For the compound `CC(=O)Nc1ccc(C2=NNC(=O)C[C@H]2C)cc1` [Metabolite (II), (R)-N-[4-(1,4,5,6-tetrahydro-4-methyl-6-oxo-3-pyridazinyl)phenyl]acetamide], the “elimination half-life compared with levosimendan” value in series [3] is “substantially longer than that of levosimendan”.
